Read-outs that look alike come from different tables or passages of the source. Where a SMILES comes first, the peptide text is derived from it. Side-chain parts run from the residue outwards. The star is where a group is joined. Cbz = O=C(OCc1ccccc1)*; Bz = O=C(c1ccccc1)*
How the values were obtained:
SIRT3 [1] = target: T1, SIRT3 (Homo sapiens, UniProt Q9NTG7); assay: Fluor de Lys SIRT3 assay; conditions: for inhibition at 10 µM: read-out: % inhibition at 10 μM SIRT3; for inhibition at 50 µM: read-out: % inhibition at 50 μM SIRT3
T1 sequence (Q9NTG7 1-399): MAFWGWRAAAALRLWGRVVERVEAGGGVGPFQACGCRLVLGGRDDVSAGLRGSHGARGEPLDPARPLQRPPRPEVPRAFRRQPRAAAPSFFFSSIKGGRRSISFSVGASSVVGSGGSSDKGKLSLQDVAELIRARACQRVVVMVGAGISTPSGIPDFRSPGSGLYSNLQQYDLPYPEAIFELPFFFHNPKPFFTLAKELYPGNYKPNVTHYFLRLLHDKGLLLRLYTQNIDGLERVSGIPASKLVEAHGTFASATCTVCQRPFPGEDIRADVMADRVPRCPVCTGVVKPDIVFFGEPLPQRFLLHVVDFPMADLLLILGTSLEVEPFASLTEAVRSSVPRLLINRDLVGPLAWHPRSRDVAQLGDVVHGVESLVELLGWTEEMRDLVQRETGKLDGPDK

SIRT5 = target: T2, SIRT5 (Homo sapiens, UniProt Q9NXA8); assay: Fluor de Lys SIRT5 assay; conditions: for inhibition at 10 µM: read-out: % inhibition at 10 μM SIRT5; for inhibition at 50 µM: read-out: % inhibition at 50 μM SIRT5
T2 sequence (Q9NXA8 37-310): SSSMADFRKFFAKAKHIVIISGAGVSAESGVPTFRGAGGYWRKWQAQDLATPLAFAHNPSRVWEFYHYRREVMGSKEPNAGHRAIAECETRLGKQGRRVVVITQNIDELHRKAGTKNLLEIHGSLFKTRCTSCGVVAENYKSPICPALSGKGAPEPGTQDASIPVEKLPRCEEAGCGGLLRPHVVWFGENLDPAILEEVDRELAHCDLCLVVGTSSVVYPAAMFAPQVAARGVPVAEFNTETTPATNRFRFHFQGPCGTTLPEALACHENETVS

SIRT2 = target: T3, SIRT2 (Homo sapiens, UniProt Q8IXJ6); assay: Fluor de Lys SIRT2 assay; conditions: for inhibition at 10 µM: read-out: % inhibition at 10 μM SIRT2; for inhibition at 1 µM: read-out: % inhibition at 1 μM SIRT2
T3 sequence (Q8IXJ6 1-389): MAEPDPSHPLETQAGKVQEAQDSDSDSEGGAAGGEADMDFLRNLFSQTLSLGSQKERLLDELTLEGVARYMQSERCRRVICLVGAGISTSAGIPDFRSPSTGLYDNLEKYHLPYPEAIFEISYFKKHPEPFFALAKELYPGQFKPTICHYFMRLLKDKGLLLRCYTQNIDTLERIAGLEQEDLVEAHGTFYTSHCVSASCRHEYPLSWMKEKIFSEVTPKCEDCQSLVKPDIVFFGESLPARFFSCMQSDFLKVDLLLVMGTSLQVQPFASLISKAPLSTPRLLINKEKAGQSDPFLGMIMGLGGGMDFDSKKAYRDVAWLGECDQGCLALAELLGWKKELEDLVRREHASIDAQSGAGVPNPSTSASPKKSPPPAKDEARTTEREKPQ

SIRT1 [2] = target: T4, SIRT1 (Homo sapiens, UniProt Q96EB6); assay: Fluor de Lys SIRT1 assay; conditions: for inhibition at 10 µM: read-out: % inhibition at 10 μM SIRT1; for inhibition at 50 µM: read-out: % inhibition at 50 μM SIRT1
T4 sequence (Q96EB6 1-747): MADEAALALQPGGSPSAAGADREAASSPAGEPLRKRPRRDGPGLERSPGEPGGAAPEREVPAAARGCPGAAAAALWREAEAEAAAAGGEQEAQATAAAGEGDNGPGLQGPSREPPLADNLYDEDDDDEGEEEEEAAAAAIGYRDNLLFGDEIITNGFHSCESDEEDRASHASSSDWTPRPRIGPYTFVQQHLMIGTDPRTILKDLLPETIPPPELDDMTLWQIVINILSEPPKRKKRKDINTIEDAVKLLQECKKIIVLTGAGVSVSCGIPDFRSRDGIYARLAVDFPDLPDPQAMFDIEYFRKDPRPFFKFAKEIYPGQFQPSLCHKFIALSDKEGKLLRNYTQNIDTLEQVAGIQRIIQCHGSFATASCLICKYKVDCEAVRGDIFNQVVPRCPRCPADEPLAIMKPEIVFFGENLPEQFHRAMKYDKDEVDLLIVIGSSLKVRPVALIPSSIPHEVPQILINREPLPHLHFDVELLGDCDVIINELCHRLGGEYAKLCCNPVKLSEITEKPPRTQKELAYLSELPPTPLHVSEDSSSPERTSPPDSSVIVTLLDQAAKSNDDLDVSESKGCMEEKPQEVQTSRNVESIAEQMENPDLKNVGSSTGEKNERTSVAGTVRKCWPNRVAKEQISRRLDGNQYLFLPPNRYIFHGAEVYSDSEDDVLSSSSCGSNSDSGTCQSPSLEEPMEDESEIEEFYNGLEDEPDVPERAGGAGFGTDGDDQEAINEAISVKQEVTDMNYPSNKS

SIRT3 [3] = target: T1, SIRT3; set-up: purchased Biomol / Enzo Life Sciences (Fluor de Lys kit AK-557) BML-SE270-0500; conditions: cited from earlier work
MDA-MB-231 cells = assay: Cell growth assay (AlamarBlue), MDA-MB-231; format: cell-based, human; conditions: Homo sapiens, 72 h of treatment
SIRT1 [4] = target: T4, SIRT1; set-up: purchased Biomol / Enzo Life Sciences (Fluor de Lys kit AK-555) BML-SE239-0100; conditions: cited from earlier work

Row | Compound | inhibition at 10 µM (SIRT3 [1]) [%] | inhibition at 50 µM (SIRT3 [1]) [%] | inhibition at 10 µM (SIRT5) [%] | inhibition at 50 µM (SIRT5) [%] | inhibition at 10 µM (SIRT2) [%] | inhibition at 10 µM (SIRT1 [2]) [%] | inhibition at 50 µM (SIRT1 [2]) [%] | IC50 (SIRT3 [3]) [µM] | inhibition at 1 µM (SIRT2) [%] | GI50 (MDA-MB-231 cells) [µM] | IC50 (SIRT1 [4]) [µM] | IC50 (SIRT2) [µM] | GI50 (MDA-MB-231 cells; MDA-MB-231, 72 h) [µM] | reduction of the SIRT2 inhibitory activity (SIRT2; removal of the phenoxyethyl fragment, relative to 26) [%] | SIRT2 inhibition (in words) (SIRT2) | inhibition at 50 µM (SIRT2; read-out: % inhibition at 50 μM SIRT2) [%] | IC50 (SIRT3 [1]) [µM] | inhibition at 1 µM (SIRT3 [1]; read-out: % inhibition at 1 μM SIRT3) [%] | IC50 (SIRT1 [2]) [µM] | inhibition at 1 µM (SIRT1 [2]; read-out: % inhibition at 1 μM SIRT1) [%]
1 | CN(C)CCCCC(=O)Nc1ccc(NC(=S)NC(=O)c2ccc(C(C)(C)C)cc2)cc1 [Compound 3, tenovin-6, reference compound] | 0 | 9 | 0 | 2 | 45 ± 2.5 | 0.9 ± 0.17 | 64 | – | – | – | – | – | – | – | – | – | – | – | – | –
2 | Cc1cc(C)nc(SCC(=O)Nc2ncc(Cc3cccc4ccccc34)s2)n1 [Compound 5, SirReal2, reference compound] | 5 ± 0.6 | 1 | 3 ± 1.5 | 1 | 98 ± 3.1 | 3 ± 0.65 | 6 | > 100 | 80 ± 1.5 | 9.46 | > 100 | – | – | – | – | – | – | – | – | –
3 | NC(=O)c1ccccc1Nc1cccc(OCCc2ccccc2)c1 [Compound 6, 3′-phenethyloxy-2-anilinobenzamide, reference compound] | 1 ± 2.6 | 12 | 10 ± 2.6 | 12 | 90 ± 1.5 | 3 ± 3.6 | 14 | > 300 | 32 ± 4.1 | – | > 300 | 1.74 ± 0.26 | > 30 | – | – | – | – | – | – | –
4 | N#C/C(=C\c1ccc(-c2cc(Cl)ccc2Cl)o1)C(=O)Nc1cccc2ncccc12 [Compound 7, AGK2, reference compound] | – | – | 0 | 3 | 45 ± 2.9 | 0.9 ± 0.62 | 14 | – | – | – | – | – | – | – | – | – | – | – | – | –
5 | O=C(Nc1cccc([N+](=O)[O-])c1)c1cccc(S(=O)(=O)N2CCCCCC2)c1 [Compound 8, AK-1, reference compound] | 0 | 0 | 0 | 0 | 31 ± 0.42 | 6.2 ± 0.85 | 25 | – | – | – | – | – | – | – | – | – | – | – | – | –
6 | NC(=O)C1CCCc2c1[nH]c1ccc(Cl)cc21 (stereo not shown) [Compound 9, EX-527, reference compound] | – | – | 0 | 0 | 79 ± 1.3 | 97 ± 0.13 | – | – | – | – | – | – | > 30 | – | – | – | – | – | – | –
7 | NC(=O)CNC(=O)c1ccccc1Nc1cccc(OCCc2ccccc2)c1 [Compound 17] | 10 ± 0.95 | 13 | 0 | 4 | 85 ± 0.47 | 10 ± 1.9 | 18 | – | 19 ± 0.63 | – | – | 3.6 ± 0.03 | – | – | – | – | – | – | – | –
8 | CCCNC(=O)CNC(=O)c1ccccc1Nc1cccc(OCCc2ccccc2)c1 [Compound 18] | 0 | 3 | 0 | 3 | 81 ± 0.43 | 2 ± 1 | 12 | – | – | – | – | 4.04 ± 0.65 | – | – | – | – | – | – | – | –
9 | CCCCCNC(=O)CNC(=O)c1ccccc1Nc1cccc(OCCc2ccccc2)c1 [Compound 19] | 3 ± 3.2 | 2 | 6 ± 3.2 | 6 | 69 ± 2.2 | 4.5 ± 3.4 | 4 | – | – | – | – | 6.71 ± 0.42 | – | – | – | – | – | – | – | –
10 | C[C@H](NC(=O)[C@H](CCCCNC(=O)CNC(=O)c1ccccc1Nc1cccc(OCCc2ccccc2)c1)NC(=O)OCc1ccccc1)C(N)=O [Compound 26] | 14 ± 4.9 | 56 | 0 | 6 | 99 ± 0.15 | 16 ± 0.1 | 25 | – | 74 ± 2 | – | – | 0.37 ± 0.03 | 10.8 | – | – | – | – | – | – | –
11 | C[C@H](NC(=O)[C@H](CCCCNC(=O)CNC(=O)c1ccccc1Nc1ccccc1)NC(=O)OCc1ccccc1)C(N)=O [Compound 27] | 9 ± 2.2 | 16 | 0 | 3 | 80 ± 0.12 | 24 ± 2.1 | 68 | – | – | – | – | 1.84 ± 0.21 | – | ~20 | – | – | – | – | – | –
12 | C[C@H](NC(=O)[C@H](CCCCNC(=O)CNC(=O)c1ccccc1)NC(=O)OCc1ccccc1)C(N)=O [Compound 28] (Cbz-Lys([Gly-Bz])-Ala-NH2) | 1 ± 1.8 | 0 | 0 | 0 | 8 ± 3.3 | 3.5 ± 1 | 1 | – | – | – | – | – | – | – | no SIRT2 inhibition | 18 | – | – | – | –
13 | CCCNC(=S)CNC(=O)c1ccccc1Nc1cccc(OCCc2ccccc2)c1 [Compound 41] | 0 | 0 | 1 ± 2.2 | 3 | 54 ± 1.5 | 0 | 10 | – | – | – | – | 8.47 ± 0.3 | – | – | – | – | – | – | – | –
14 | CCCCCNC(=S)CNC(=O)c1ccccc1Nc1cccc(OCCc2ccccc2)c1 [Compound 42] | 0 | 2 | 0 | 3 | 40 ± 3.4 | 0 | 11 | – | – | – | – | 19.3 ± 3.1 | – | – | – | – | – | – | – | –
15 | CC(=S)NCCCC[C@H](NC(=O)OCc1ccccc1)C(=O)N[C@@H](C)C(N)=O [UKU 10363, reference compound] | 65 ± 0.23 | – | 3 ± 3.9 | 6 | 99 ± 3.2 | 97 ± 0.04 | – | – | 56 ± 1.9 | – | – | 0.59 ± 0.13 | – | – | – | – | 4.39 ± 0.28 | 19 ± 0.78 | 0.18 ± 0.013 | 83 ± 0.4
